Measured values taken from PubChem BioAssay (NCI).
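Grown in 96-well plates, cells were treated for 48 hours with each compound at five concentrations. Insufficient inhibition: endpoint recorded as highest concentration tested. Definition used: TGI = concentration required for complete inhibition of growth.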

Columns and labels:
Assay in all cases: NCI-60 cell line screen, 48 h
[1] = test system: NCI-H460 lung
[2] = test system: HCT-116 colon
[3] = test system: UACC-62 melanoma
[4] = test system: SNB-75 CNS
[5] = test system: DLD-1 colon
[6] = test system: COLO 205 colon
[7] = test system: LXFL 529 NSCLC
[8] = test system: HOP-18 NSCLC
[9] = test system: SF-295 CNS
[10] = test system: HOP-62 NSCLC
[11] = test system: OVCAR-3 ovarian
[12] = test system: OVCAR-5 ovarian
[13] = test system: RXF 393 renal
[14] = test system: SF-268 CNS
[15] = test system: RPMI-8226 leukemia
[16] = test system: HOP-92 NSCLC
[17] = test system: KM12 colon
[18] = test system: HCT-15 colon
[19] = test system: ACHN renal
[20] = test system: HT29 colon
[21] = test system: SR leukemia
[22] = test system: SF-539 CNS
[23] = test system: NCI-H23 lung
[24] = test system: 786-0 renal
[25] = test system: OVCAR-8 ovarian
[26] = test system: DMS 273 small cell lung
[27] = test system: MOLT-4 leukemia
[28] = test system: IGROV1 ovarian
[29] = test system: SK-OV-3 ovarian
[30] = test system: M14 melanoma
[31] = test system: SK-MEL-5 melanoma
[32] = test system: KM20L2 colon
[33] = test system: NCI-H226 lung
[34] = test system: UACC-257 melanoma
[35] = test system: NCI-H522 lung
[36] = test system: TK-10 renal
[37] = test system: SN12C renal
[38] = test system: SNB-78 CNS
[39] = test system: OVCAR-4 ovarian
[40] = test system: LOX IMVI melanoma
[41] = test system: CAKI-1 renal
[42] = test system: RXF-631 renal
[43] = test system: SK-MEL-2 melanoma
[44] = test system: HCC-2998 colon
[45] = test system: CCRF-CEM leukemia
[46] = test system: SK-MEL-28 melanoma
[47] = test system: SW-620 colon
[48] = test system: M19-MEL melanoma
[49] = test system: A498 renal
[50] = test system: U251 CNS
[51] = test system: UO-31 renal
[52] = test system: A549 NSCLC
[53] = test system: MALME-3M melanoma
[54] = test system: K-562 leukemia
[55] = test system: EKVX NSCLC
[56] = test system: SNB-19 CNS
[57] = test system: XF 498 CNS
[58] = test system: DMS 114 small cell lung
[59] = test system: MDA-MB-435
[60] = test system: PC-3 prostate
[61] = test system: MDA-MB-231 breast
[62] = test system: T-47D breast
[63] = test system: DU-145 prostate
[64] = test system: MCF7 breast
[65] = test system: HL-60(TB) leukemia
[66] = test system: MDA-N
[67] = test system: HS 578T breast

**Q.** Which results are given for `N#C/C(=C\c1ccc2ccccc2c1)c1ccccc1`?
**A.** TGI [1]: 34 µM; TGI [2]: > 100 µM; TGI [3]: 36.7 µM; TGI [4]: 48.6 µM; TGI [5]: > 100 µM; TGI [6]: 35.9 µM; TGI [7]: > 100 µM; TGI [8]: > 100 µM; TGI [9]: 50.4 µM; TGI [10]: 74.6 µM; TGI [11]: 28.3 µM; TGI [12]: > 100 µM; TGI [13]: 65 µM; TGI [14]: > 100 µM; TGI [15]: > 100 µM; TGI [16]: > 100 µM; TGI [17]: > 100 µM; TGI [18]: > 100 µM; TGI [19]: 98.3 µM; TGI [20]: 74.6 µM; TGI [21]: > 100 µM; TGI [22]: 36.8 µM; TGI [23]: > 100 µM; TGI [24]: 41.3 µM; TGI [25]: 96.7 µM; TGI [26]: 35.8 µM; TGI [27]: 94.5 µM; TGI [28]: 37.3 µM; TGI [29]: 70.7 µM; TGI [30]: 65.6 µM; TGI [31]: 66.5 µM; TGI [32]: 34.9 µM; TGI [33]: > 100 µM; TGI [34]: > 100 µM; TGI [35]: 29.6 µM; TGI [36]: 75.7 µM; TGI [37]: > 100 µM; TGI [38]: 84.7 µM; TGI [39]: 69.1 µM; TGI [40]: > 100 µM; TGI [41]: 50 µM; TGI [42]: > 100 µM; TGI [43]: 85 µM; TGI [44]: 87.9 µM; TGI [45]: 78.1 µM; TGI [46]: > 100 µM; TGI [47]: > 100 µM; TGI [48]: > 100 µM; TGI [49]: 76.4 µM; TGI [50]: 57.1 µM; TGI [51]: 86.7 µM

**Q.** `O=C(N/C(=C\c1cccc([N+](=O)[O-])c1)c1nc2ccc([N+](=O)[O-])cc2[nH]1)c1ccccc1` was tested. Which TGI [52] did it give?
**A.** Its TGI is greater than 100 µM.

**Q.** What about the TGI [53] of the same compound?
**A.** Its TGI is greater than 100 µM.

**Q.** And the TGI [3]?
**A.** The TGI was 46.7 µM.

**Q.** What about the TGI [54] of the same compound?
**A.** The TGI was greater than 100 µM.

**Q.** And the TGI [5]?
**A.** The TGI was greater than 100 µM.

**Q.** What about the TGI [6] of the same compound?
**A.** The TGI was greater than 100 µM.

**Q.** What about the TGI [7] of the same compound?
**A.** Its TGI is 75.1 µM.

**Q.** And the TGI [9]?
**A.** Its TGI is greater than 100 µM.

**Q.** And the TGI [11]?
**A.** Its TGI is greater than 100 µM.

**Q.** What about the TGI [55] of the same compound?
**A.** The TGI was greater than 100 µM.

**Q.** What about the TGI [12] of the same compound?
**A.** Its TGI is greater than 100 µM.

**Q.** And the TGI [13]?
**A.** Its TGI is greater than 100 µM.

**Q.** What about the TGI [14] of the same compound?
**A.** Its TGI is greater than 100 µM.

**Q.** And the TGI [16]?
**A.** The TGI was 60.7 µM.

**Q.** And the TGI [17]?
**A.** The TGI was greater than 100 µM.

**Q.** What about the TGI [18] of the same compound?
**A.** Its TGI is greater than 100 µM.

**Q.** And the TGI [19]?
**A.** The TGI was greater than 100 µM.

**Q.** What about the TGI [20] of the same compound?
**A.** The TGI was greater than 100 µM.

**Q.** What about the TGI [21] of the same compound?
**A.** The TGI was 65.6 µM.

**Q.** What about the TGI [22] of the same compound?
**A.** The TGI was greater than 100 µM.

**Q.** What about the TGI [23] of the same compound?
**A.** The TGI was greater than 100 µM.

**Q.** And the TGI [24]?
**A.** The TGI was greater than 100 µM.

**Q.** And the TGI [25]?
**A.** Its TGI is greater than 100 µM.

**Q.** And the TGI [26]?
**A.** Its TGI is greater than 100 µM.

**Q.** And the TGI [27]?
**A.** The TGI was 51.4 µM.

**Q.** And the TGI [28]?
**A.** The TGI was 74.4 µM.

**Q.** And the TGI [56]?
**A.** Its TGI is greater than 100 µM.

**Q.** What about the TGI [29] of the same compound?
**A.** The TGI was greater than 100 µM.

**Q.** And the TGI [30]?
**A.** Its TGI is greater than 100 µM.

**Q.** What about the TGI [31] of the same compound?
**A.** Its TGI is 43.7 µM.

**Q.** What about the TGI [32] of the same compound?
**A.** The TGI was greater than 100 µM.

**Q.** And the TGI [35]?
**A.** The TGI was 52.9 µM.

**Q.** What about the TGI [36] of the same compound?
**A.** Its TGI is greater than 100 µM.

**Q.** And the TGI [37]?
**A.** Its TGI is greater than 100 µM.

**Q.** What about the TGI [38] of the same compound?
**A.** The TGI was greater than 100 µM.

**Q.** And the TGI [57]?
**A.** Its TGI is 59.8 µM.

**Q.** What about the TGI [39] of the same compound?
**A.** The TGI was 66.1 µM.

**Q.** What about the TGI [41] of the same compound?
**A.** Its TGI is greater than 100 µM.

**Q.** What about the TGI [42] of the same compound?
**A.** Its TGI is greater than 100 µM.

**Q.** And the TGI [43]?
**A.** The TGI was 61 µM.

**Q.** What about the TGI [44] of the same compound?
**A.** The TGI was greater than 100 µM.

**Q.** What about the TGI [45] of the same compound?
**A.** Its TGI is 87.6 µM.

**Q.** And the TGI [46]?
**A.** Its TGI is greater than 100 µM.

**Q.** And the TGI [47]?
**A.** Its TGI is greater than 100 µM.

**Q.** And the TGI [48]?
**A.** The TGI was greater than 100 µM.

**Q.** What about the TGI [50] of the same compound?
**A.** Its TGI is greater than 100 µM.

**Q.** And the TGI [51]?
**A.** The TGI was 58.9 µM.

**Q.** What does the source list for `CCOCC(=O)N[C@H]1CCc2cc(OC)c(OC)c(OC)c2-c2ccc(OC)c(=O)cc21`?
**A.** TGI [1]: > 16.7 µM; TGI [52]: > 100 µM; TGI [2]: 10.7 µM; TGI [58]: 0.0289 µM; TGI [53]: > 100 µM; TGI [59]: < 0.0196 µM; TGI [3]: > 100 µM; TGI [54]: > 100 µM; TGI [5]: > 100 µM; TGI [6]: 0.0205 µM; TGI [7]: > 100 µM; TGI [8]: > 100 µM; TGI [9]: 0.379 µM; TGI [10]: > 100 µM; TGI [11]: 0.0849 µM; TGI [60]: > 100 µM; TGI [55]: > 100 µM; TGI [12]: > 100 µM; TGI [13]: > 100 µM; TGI [14]: > 100 µM; TGI [15]: > 100 µM; TGI [61]: > 100 µM; TGI [16]: 7.24 µM; TGI [17]: 0.0334 µM; TGI [18]: 19.1 µM; TGI [62]: > 100 µM; TGI [19]: > 100 µM; TGI [20]: > 8.15 µM; TGI [21]: > 100 µM; TGI [22]: 0.0328 µM; TGI [23]: 0.178 µM; TGI [63]: 0.107 µM; TGI [24]: > 100 µM; TGI [25]: 17 µM; TGI [26]: > 100 µM; TGI [27]: > 52.7 µM; TGI [28]: > 100 µM; TGI [56]: > 100 µM; TGI [29]: 15 µM; TGI [64]: > 100 µM; TGI [30]: 20.2 µM; TGI [31]: 0.36 µM; TGI [32]: 0.0375 µM; TGI [33]: 2.52 µM; TGI [34]: > 100 µM; TGI [65]: 0.101 µM; TGI [35]: 0.0768 µM; TGI [36]: > 100 µM; TGI [37]: > 100 µM; TGI [38]: > 100 µM; TGI [57]: > 60 µM; TGI [39]: > 100 µM; TGI [40]: > 100 µM; TGI [41]: 30.1 µM; TGI [43]: > 15.8 µM; TGI [44]: 5.27 µM; TGI [45]: > 100 µM; TGI [66]: < 0.0196 µM; TGI [46]: > 100 µM; TGI [47]: > 100 µM; TGI [67]: > 100 µM; TGI [48]: > 100 µM; TGI [49]: 8.87 µM; TGI [50]: 8.9 µM; TGI [51]: > 100 µM
